Like-named read-outs stand apart in the source and are kept apart here.
Experiments:
[1] = test system: human WSU-DLCL2; assay: Antitumor activity against human WSU-DLCL2 xenografts in SCID female mice; type: in vivo; conditions: for Median (nMad) tumor volume changes from baseline: n = 7
Experimental: To evaluate the antitumor activity of Bendamustine in combination with the dual pan-PI3K/mTOR inhibitor Compound A, experiments were conducted using female SCID mice bearing human WSU-DLCL2 xenografts. In this study, Bendamustine at 3.5 and 7 mg/kg was tested in combination with Compound A at 20 mg/kg.
CB17/1CR-Prkdc severe combined immunodeficiency (SCID)/Crl mice, at 8-10 weeks old, were bred at Charles River France (Domaine des Oncins, 69210 L'Arbreste, France) from strains obtained from Charles River, USA. Mice were over 18 g at start of treatment after an acclimatization time of at least 5 days. […] They were housed on a 12 hours light/dark cycle. Environmental conditions including animal maintenance, room temperature (22° C.±2° C.), relative humidity (55%±15%) and lighting times were recorded by the supervisor of laboratory animal sciences and welfare (LAW) and the records are archived.
The human WSU-DLCL2 tumor model was established by implanting (SC) small tumor fragments and was maintained in SCID female mice using serial passages.
Bendamustine formulation was prepared by incorporating the compound into NaCl 0.9% at pH 3. The preparation was prepared daily prior administration. The volume of IP administration per mouse was 10 mL/kg.
(§1) Compound A formulations were prepared in 1N HCl and water for injection, final pH was 3, followed by five cycles of vortexing and sonicating. The stock solution was chemically stable 7 days in the dark at 4° C. The volume of PO administration per mouse was 10 mL/kg.
For subcutaneous implantation of tumor cells, skin in the flank of the mice was disinfected using alcohol or Betadine® solution (Alcyon) and a suspension of tumor cells was inoculated SC unilaterally under a volume of 0.2 mL using a 23 G needle.
The animals required to begin a given experiment were pooled and implanted monolaterally on day 0. Treatments were administered on measurable tumors. The solid tumors were allowed to grow to the desired volume range (animals with tumors not in the desired range were excluded). The mice were then pooled and unselectively distributed to the various treatment and control groups. […] The dosages are expressed in mg/kg, based on the body weight at start of therapy. Mice were checked daily, and adverse clinical reactions noted. Each group of mice was weighed as a whole daily until the weight nadir was reached. Then, groups were weighed once to thrice weekly until the end of the experiment. Tumors were measured with a calliper 2 to 3 times weekly until final sacrifice for sampling time, tumor reached 2000 mm^3 or until the animal died (whichever comes first). Solid tumor volumes were estimated from two-dimensional tumor measurements and calculated according to the following equation:
Tumor weight (mg)=Length (mm)×Width^2(mm^2)/2
The primary efficacy end points are ΔT/ΔC, percent median regression, partial and complete regressions (PR and CR).
Changes in tumor volume for each treated (T) and control (C) group were calculated for each tumor by subtracting the tumor volume on the day of first treatment (staging day) from the tumor volume on the specified observation day. The median ΔT is calculated for the treated group, and the median ΔC is calculated for the control group. Then the ratio ΔT/ΔC is calculated and expressed as a percentage. The dose is considered as therapeutically active when ΔT/ΔC is lower than 40% and very active when ΔT/ΔC is lower than 10%.
Partial regression: Regressions are defined as partial if the tumor volume decreases to 50% or the tumor volume at the start of treatment.
Complete regression: The CR is achieved when tumor volume=0 mm^3 (CR is considered when tumor volume cannot be recorded).
The term “therapeutic synergy” is used when the combination of two products at given doses is more efficacious than the best of the two products alone considering the same doses.

[2] = type: in vivo
Experimental: The animals required to begin a given experiment were pooled and implanted monolaterally on day 0. Treatments were administered on measurable tumors. The solid tumors were allowed to grow to the desired volume range (animals with tumors not in the desired range were excluded). The mice were then pooled and unselectively distributed to the various treatment and control groups. Treatment started 20 days post WSU-DLCL2 tumor fragment implantation as indicated in the results section and in each table. The dosages are expressed in mg/kg, based on the body weight at start of therapy. Mice were checked daily, and adverse clinical reactions noted. Each group of mice was weighed as a whole daily until the weight nadir was reached. Then, groups were weighed once to thrice weekly until the end of the experiment. Tumors were measured with a calliper 2 to 3 times weekly until final sacrifice for sampling time, tumor reached 2000 mm^3 or until the animal died (whichever comes first). Solid tumor volumes were estimated from two-dimensional tumor measurements and calculated according to the following equation: […]
The day of death was recorded. Surviving animals were sacrificed and macroscopic examination of the thoracic and abdominal cavities was performed.
A dosage producing a 15% body weight loss (BWL) during three consecutive days (mean of group), 20% BWL during 1 day or 10% or more drug deaths was considered an excessively toxic dosage. Animal body weights included the tumor weight.

[3] = Chemical stability of Compound A stock solution; type: physicochemical; conditions: formulation in 1N HCl and water for injection, final pH 3; in the dark at 4° C.
Experimental: as §1

[4] = Maximum tolerated dose of Compound A administered as single agent; conditions: twice daily
[5] = Compound A 20 mg/kg per injection (total 240) PO, days 20-31
[6] = Bendamustine 3.5 mg/kg per injection (total 21) IP, days 20-25
[7] = Bendamustine 7 mg/kg per injection (total 42) IP, days 20-25

CCn1c(=O)c(-c2ccn[nH]2)cc2c(C)nc(N)nc21 [Compound A, 2-amino-8-ethyl-4-methyl-6-(1H-pyrazol-5-yl)pyrido[2,3-d]pyrimidin-7(8H)-one]
Regressions Complete [1, 5]: 0/7 | Regressions Partial [1, 5]: 0/7 | Median ΔT/ΔC in % day 31 ([1]; Compound A 20 mg/kg per injection (total 240) PO, days 20-31, day 31, 20 mg/kg): 54% | Median (nMad) tumor volume changes from baseline ([1]; Compound A 20 mg/kg, Day 24): 145 (139.4) | Median (nMad) tumor volume changes from baseline ([1]; Compound A 20 mg/kg, Day 26): 218 (26.7) | Median (nMad) tumor volume changes from baseline ([1]; Compound A 20 mg/kg, Day 28): 242 (172) | Median (nMad) tumor volume changes from baseline ([1]; Compound A 20 mg/kg, Day 31): 314 (317.3) | Drug death (Day of death) [2, 5]: 0/7 | Average body weight change in % per mouse at nadir ([2]; mouse, in vivo, po, 20 mg/kg): −2.0% | day of nadir (body weight) ([2]; mouse, in vivo, po, 20 mg/kg): 21 days | Chemical stability of stock solution [3]: 7 days | MTD of Compound A administered as single agent [4]: 50 mg BID

Cn1c(CCCC(=O)O)nc2cc(N(CCCl)CCCl)ccc21 [Bendamustine, 4-[5-[Bis(2-chloroethyl)amino]-1-methylbenzimidazol-2-yl]butanoic acid]
Regressions Complete [1, 6]: 0/7 | Regressions Partial [1, 6]: 0/7 | Median (nMad) tumor volume changes from baseline ([1]; Bendamustine 3.5 mg/kg, Day 24): 170 (62.3) | Median (nMad) tumor volume changes from baseline ([1]; Bendamustine 3.5 mg/kg, Day 26): 222 (89) | Median (nMad) tumor volume changes from baseline ([1]; Bendamustine 3.5 mg/kg, Day 28): 268 (252) | Median (nMad) tumor volume changes from baseline ([1]; Bendamustine 3.5 mg/kg, Day 31): 483 (247.6) | Regressions Complete [1, 7]: 0/7 | Regressions Partial [1, 7]: 0/7 | Median (nMad) tumor volume changes from baseline ([1]; Bendamustine 7 mg/kg, Day 24): 267 (198.7) | Median (nMad) tumor volume changes from baseline ([1]; Bendamustine 7 mg/kg, Day 26): 317 (258) | Median (nMad) tumor volume changes from baseline ([1]; Bendamustine 7 mg/kg, Day 28): 306 (268.4) | Median (nMad) tumor volume changes from baseline ([1]; Bendamustine 7 mg/kg, Day 31): 477 (249.1) | Average body weight change in % per mouse at nadir [2, 6]: −3.8% | Drug death (Day of death) [2, 6]: 0/7 | day of nadir (body weight) [2, 6]: 28 days | Average body weight change in % per mouse at nadir [2, 7]: −7.2% | Drug death (Day of death) [2, 7]: 0/7 | day of nadir (body weight) [2, 7]: 27 days | Tolerability ([2]; as single agents or in combination: Bendamustine 3.5 and 7 mg/kg, Compound A 20 mg/kg): tolerated

— patent US20140302012A1, “Combination Therapies for Treating Hematologic Malignancies Using Pyridopyrimidinone Inhibitors of PI3K/mTOR with Bendamustine and/or Rituximab” (priority 2011, published 2014)
